Reference: the Kinase Knowledgebase extract (Sharma et al. 2016)

Biological target: CDK2 (human) (UniProt P24941)
Test: Enzyme Assay

Compound | IC50 [µM]
COc1ccc(-c2ccnc(Nc3cccc(S(C)(=O)=O)c3)n2)c(OC)n1 | < 5
CNS(=O)(=O)c1cccc(Nc2nccc(-c3cccnc3OC)n2)c1 | < 5
NCCCNc1ncccc1-c1ccnc(Nc2cccc(Cl)c2)n1 | < 5
COc1cnccc1-c1ccnc(Nc2cccc(S(C)(=O)=O)c2)n1 | < 5
COc1ncccc1-c1ccnc(Nc2ccc3cn[nH]c3c2)n1 | < 5
CS(=O)(=O)c1cccc(Nc2nccc(-c3cccnc3NCCCN)n2)c1 | < 5
O=C1CCCN1CCCNc1ncccc1-c1ccnc(Nc2cccc(Cl)c2)n1 | < 5
COc1ncccc1-c1ccnc(Nc2cccc(C(=O)O)c2)n1 | < 5
CN(C)CCCNc1ncccc1-c1ccnc(Nc2cccc(Cl)c2)n1 | < 5
Cc1c(-c2ccnc(Nc3cccc(Cl)c3)n2)ccnc1NCCCN1CCCC1=O | < 5
CCNC(=O)c1cccc(Nc2nccc(-c3cccnc3OC)n2)c1 | < 5
CNCCNc1nccc(-c2ccnc(Nc3cccc(Cl)c3)n2)c1C | < 5
CC(=O)NCCCNc1cc(-c2nc(Nc3cccc(Cl)c3)ncc2C)ccn1 | < 5
CC(=O)NCCCNc1nccc(-c2ccnc(Nc3cccc(Cl)c3)n2)c1C | < 5
COc1ncccc1-c1ccnc(Nc2cccc(S(=O)(=O)NCCO)c2)n1 | < 5
COc1cnccc1-c1ccnc(Nc2cccc(Cl)c2)n1 | < 5
COc1ncccc1-c1ccnc(Nc2cccc(C(=O)OC(C)(C)C)c2)n1 | < 5
OCCCNc1ncccc1-c1ccnc(Nc2cccc(Cl)c2)n1 | < 5
CCNS(=O)(=O)c1cccc(Nc2nccc(-c3cccnc3OC)n2)c1 | < 5
CC(=O)NCCCNc1cc(-c2ccnc(Nc3cccc(Cl)c3)n2)cc(C)n1 | < 5
CCCCNS(=O)(=O)c1cccc(Nc2nccc(-c3cccnc3OC)n2)c1 | < 5

Compound | IC50 [µM]
COc1ncccc1-c1ccnc(Nc2cccc(S(N)(=O)=O)c2)n1 | < 5
CC(C)(CN)CNc1ncccc1-c1ccnc(Nc2cccc(Cl)c2)n1 | < 5
NS(=O)(=O)c1cccc(Nc2nccc(-c3cccnc3NCCCn3ccnc3)n2)c1 | < 5
COc1ncccc1-c1ccnc(Nc2cccc(C3CCNCC3)c2)n1 | < 5
N#Cc1cccc(Nc2nccc(-c3cccnc3NCCCN)n2)c1 | < 5
COc1cnccc1-c1ccnc(Nc2cccc(S(N)(=O)=O)c2)n1 | < 5
Clc1cccc(Nc2nccc(-c3cccnc3NCCCN3CCOCC3)n2)c1 | < 5
COCCCNc1nccc(-c2ccnc(Nc3cccc(Cl)c3)n2)c1C | < 5
CC(=O)OCCCNc1ncccc1-c1ccnc(Nc2cccc(Cl)c2)n1 | < 5
Cc1c(-c2ccnc(Nc3cccc(Cl)c3)n2)ccnc1NCCCn1ccnc1 | < 5
COc1ncccc1-c1ccnc(Nc2cccc(-c3nncn3C)c2)n1 | < 5
Nc1cnccc1-c1ccnc(Nc2cccc(Cl)c2)n1 | < 5
CC(=O)NCCCNc1ncccc1-c1ccnc(Nc2cccc(S(N)(=O)=O)c2)n1 | < 5
Cc1nccn1CCCNc1ncccc1-c1ccnc(Nc2cccc(Cl)c2)n1 | < 5
COc1ncccc1-c1ccnc(Nc2cccc(S(=O)(=O)N3CCCCC3)c2)n1 | < 5
COCCCNc1ncccc1-c1ccnc(Nc2cccc(Cl)c2)n1 | < 5
CCOC(=O)c1cccc(Nc2nccc(-c3cccnc3OC)n2)c1 | < 5
Cc1cnccc1-c1ccnc(Nc2cccc(Cl)c2)n1 | < 5
COc1ncccc1-c1ccnc(Nc2cccc(S(C)(=O)=O)c2)n1 | < 5
CC(C)NCCCNc1ncccc1-c1ccnc(Nc2cccc(Cl)c2)n1 | < 5
CC(=O)NCC(C)(C)CNc1ncccc1-c1ccnc(Nc2cccc(Cl)c2)n1 | < 5

Compound | IC50 [µM]
Cc1cnc(Nc2cccc(Cl)c2)nc1-c1cccnc1NCCCN | < 5
NCCNc1ncccc1-c1ccnc(Nc2cccc(Cl)c2)n1 | < 5
COc1ncccc1-c1ccnc(Nc2cccc(NC(C)=O)c2)n1 | < 5
COc1ncccc1-c1ccnc(Nc2cccc(-c3cnco3)c2)n1 | < 5
CC(=O)NCCCNc1ncccc1-c1ccnc(Nc2cccc(Cl)c2)n1 | < 5
COc1ncccc1-c1ccnc(Nc2cccc(C(N)=O)c2)n1 | < 5
NCCCNc1ncccc1-c1ccnc(Nc2cccc(S(N)(=O)=O)c2)n1 | < 5
CC(=O)NCCNc1ncccc1-c1ccnc(Nc2cccc(Cl)c2)n1 | < 5
CS(=O)(=O)NCCCNc1ncccc1-c1ccnc(Nc2cccc(Cl)c2)n1 | < 5
COc1ncccc1-c1ccnc(Nc2ccc(N3CCN(C)CC3)cc2)n1 | < 5
Clc1cccc(Nc2nccc(-c3cccnc3NCCc3c[nH]cn3)n2)c1 | < 5
Clc1cccc(Nc2nccc(-c3cccnc3NCCCn3ccnc3)n2)c1 | < 5
Cc1c(-c2ccnc(Nc3cccc(Cl)c3)n2)ccnc1NCc1ccccc1 | < 5
CC(=O)NCCCNc1nccc(-c2ccnc(Nc3cccc([N+](=O)[O-])c3)n2)c1C | < 5
Cc1c(-c2ccnc(Nc3cccc(Cl)c3)n2)ccnc1NCCCN1CCOCC1 | < 5
COc1ncccc1-c1ccnc(Nc2cccc(C#N)c2)n1 | < 5
CC(=O)NCCCCNc1ncccc1-c1ccnc(Nc2cccc(Cl)c2)n1 | < 5
NCCCCNc1ncccc1-c1ccnc(Nc2cccc(Cl)c2)n1 | < 5
CC(=O)NCCCNc1ncccc1-c1ccnc(Nc2cccc(C#N)c2)n1 | < 5
